Data from ChEMBL document CHEMBL3301472, “MMV Malaria Box HIV and cytotoxicity screening”.

Columns and labels:
[1] = MMV: MTT Cytotoxicity Assay Day 3 pi, U87-CD4-CCR5 cells, % cell death @ 5mM compound; type: toxicity, cell-based; conditions: human, u87-cd4-ccr5, 5000 µM
[2] = MMV: MTT Cytotoxicity Assay Day 3 pi, U87-CD4-CXCR4 cells, % cell death @ 5mM compound; type: toxicity, cell-based; conditions: human, u87-cd4-cxcr4, 5000 µM
[3] = MMV: MTT Cytotoxicity Assay Day 7 pi of Assay #7 (compound washed out Day 1 pi), U87-CD4-CXCR4 cells, % cell death @ 5mM compound; type: toxicity, cell-based; conditions: human, u87-cd4-cxcr4, 5000 µM
[4] = MMV: MTT Cytotoxicity Assay Day 7 pi of Assay #10 (NO washout), U87-CD4-CCR5 cells, % cell death @ 5mM compound; type: toxicity, cell-based; conditions: human, u87-cd4-ccr5, 5000 µM
[5] = MMV: MTT Cytotoxicity Assay Day 7 pi of Assay #11 (NO washout), U87-CD4-CXCR4 cells, % cell death @ 5mM compound; type: toxicity, cell-based; conditions: human, u87-cd4-cxcr4, 5000 µM
[6] = MMV: MTT Cytotoxicity Assay Day 7 pi of Assay #6 (compound washed out Day 1 pi), U87-CD4-CCR5 cells, % cell death @ 5mM compound; type: toxicity, cell-based; conditions: human, u87-cd4-ccr5, 5000 µM
[7] = test system: Human immunodeficiency virus 1; assay: MMV: HIV JRFL CCR5-tropic replication-competent virus, virus & compound washed out Day 1 pi, P24 ELISA Day 7 pi, U87-CD4-CCR5, % inhibition at 5 mM compound; type: functional; set-up: dose or concentration left out as unconfirmed; conditions: Human immunodeficiency virus 1, JR-FL

SMILES | % Cell Death [1] | % Cell Death [2] | % Cell Death [3] | % Cell Death [4] | % Cell Death [5] | % Cell Death [6] | inhibition [7] [%]
COc1ccc(Nc2nc(NCc3ccccc3)c3ccccc3n2)cc1 | 18 | 28 | -30 | 41 | -24 | 21 | 2
c1ccc2c(NCCc3c[nH]c4ccccc34)c3ccccc3nc2c1 | 64 | 62 | -4 | 20 | 42 | 29 | 5
COc1ccc(-c2nc(NC(=O)CS(=O)(=O)c3ccc(F)cc3)sc2C)cc1 | 41 | 29 | 9 | 10 | 71 | -7 | -1
COc1cc2cc(C(=O)Nc3ccccc3)c(N)nc2cc1OC | 75 | 43 | 51 | 95 | 106 | 0 | 9
CCCOCc1cc(CN2CCN(c3cccc(Cl)c3)CC2)c(O)c2ncccc12 | 24 | 31 | -7 | 15 | -57 | -8 | 9
CN1CCN(c2ncnc3c2[nH]c2ccc(Cl)cc23)CC1 | -11 | 27 | -25 | 31 | 1 | 29 | 10
CCOC(=O)C1=C(C)N=c2sc(=Cc3cc(Cl)ccc3O)c(=O)n2C1c1ccc(OC)cc1 (centres undefined) | -27 | 15 | -6 | 11 | -46 | 10 | 1
CC(=O)c1ccc(NC(=O)CSc2nc(-c3ccccc3Cl)ns2)cc1 | 57 | 51 | 8 | 41 | -33 | 7 | 7
O=c1nc(C=Cc2ccc(Cl)cc2)oc2ccccc12 | 50 | 20 | -17 | 26 | -47 | 7 | 1
CN(C)c1ccc(-c2nc3cc(N)ccc3[nH]2)cc1 | 22 | 19 | -21 | 2 | -20 | -1 | 0
Cc1ccc(-c2nc3ccccc3o2)cc1NCc1cc(Cc2ccccc2)ccc1O | 27 | 15 | -11 | 13 | 52 | -7 | 8
Cc1cccc(Nc2nc(N)c3ccccc3n2)c1.Cl | 7 | 43 | -15 | 43 | 71 | 28 | 5
Cc1ccc(-c2cc(C(=O)Nc3ccc(S(=O)(=O)N4CCCCC4)cc3)[nH]n2)c(O)c1 | -5 | 11 | -29 | 10 | 16 | 18 | 6
Cc1ccc(CSCc2ccc(C(=O)NC3CC3)o2)cc1 | 23 | 12 | -23 | -6 | -2 | 18 | 2
COc1ccc(N2CCN(C(CNC(=O)C3CCCCC3)c3ccc4c(c3)OCO4)CC2)cc1 (centres undefined) | 17 | 63 | 6 | 38 | 71 | 25 | 10
Cl.Clc1cc(Br)ccc1-c1ccc(CNCC2CCNCC2)o1 | 15 | 27 | 4 | 0 | -60 | -9 | 4
COc1ccc(C2c3ccc4ccccc4c3Oc3ncn(CCCN(C)C)c(=N)c32)cc1 (centres undefined) | 15 | 39 | -12 | -3 | -61 | -31 | 
CC(C)(C)c1ccc2c(c1)CN(Cc1ccc(Cl)cc1)CO2 | 64 | 37 | 18 | 23 | -36 | 66 | 
